Results from the NIST ThermoML archive (doi:10.1016/j.fluid.2008.09.022).

Test: relative permittivity at various frequencies (dimensionless)
Details: Liquid, Frequency=0.01 MHz, Parallel plate capacitor

CC(F)(F)F [1,1,1-trifluoroethane]
Details	relative permittivity
218.12 K, 2000 kPa	16.968
218.13 K, 3000 kPa	17.006
218.16 K, 4000 kPa	17.043
218.17 K, 5000 kPa	17.076
218.18 K, 11000 kPa	17.303
218.19 K, 6000 kPa	17.111
218.21 K, 7000 kPa	17.147
218.22 K, 10000 kPa	17.264
218.23 K, 8000 kPa	17.184
218.23 K, 9000 kPa	17.224
218.24 K, 12000 kPa	17.326
218.43 K, 13000 kPa	17.338
218.45 K, 14000 kPa	17.37
218.48 K, 15000 kPa	17.403
223.96 K, 15000 kPa	16.732
223.97 K, 13000 kPa	16.66
223.97 K, 14000 kPa	16.696
223.98 K, 12000 kPa	16.622
224 K, 2000 kPa	16.227
224 K, 3000 kPa	16.267
224 K, 4000 kPa	16.308
224 K, 5000 kPa	16.349
224 K, 6000 kPa	16.389
224 K, 7000 kPa	16.432
224 K, 8000 kPa	16.486
224 K, 9000 kPa	16.506
224 K, 10000 kPa	16.547
224 K, 11000 kPa	16.582
232.97 K, 14000 kPa	15.659
232.97 K, 15000 kPa	15.697
232.98 K, 13000 kPa	15.622
232.99 K, 9000 kPa	15.465
232.99 K, 10000 kPa	15.503
232.99 K, 12000 kPa	15.581
233 K, 6000 kPa	15.343
233 K, 7000 kPa	15.387
233 K, 8000 kPa	15.424
233 K, 11000 kPa	15.543
233.01 K, 2000 kPa	15.164
233.01 K, 3000 kPa	15.207
233.01 K, 4000 kPa	15.253
233.01 K, 5000 kPa	15.298
243.15 K, 14000 kPa	14.59
243.15 K, 15000 kPa	14.629
243.16 K, 2000 kPa	14.061
243.16 K, 3000 kPa	14.108
243.16 K, 4000 kPa	14.158
243.16 K, 5000 kPa	14.203
243.16 K, 6000 kPa	14.254
243.16 K, 7000 kPa	14.298
243.16 K, 9000 kPa	14.386
243.16 K, 10000 kPa	14.43
243.16 K, 11000 kPa	14.469
243.16 K, 12000 kPa	14.51
243.16 K, 13000 kPa	14.552
243.17 K, 8000 kPa	14.34
253.13 K, 2000 kPa	13.05
253.13 K, 6000 kPa	13.264
253.13 K, 8000 kPa	13.362
253.13 K, 9000 kPa	13.407
253.13 K, 15000 kPa	13.669
253.14 K, 3000 kPa	13.106
253.14 K, 4000 kPa	13.16
253.14 K, 5000 kPa	13.209
253.14 K, 7000 kPa	13.311
253.14 K, 10000 kPa	13.455
253.14 K, 11000 kPa	13.5
253.14 K, 12000 kPa	13.543
253.14 K, 14000 kPa	13.628
253.15 K, 13000 kPa	13.585
263.02 K, 2000 kPa	12.145
263.02 K, 12000 kPa	12.685
263.02 K, 13000 kPa	12.733
263.03 K, 3000 kPa	12.203
263.03 K, 4000 kPa	12.264
263.03 K, 6000 kPa	12.379
263.03 K, 7000 kPa	12.431
263.03 K, 8000 kPa	12.485
263.03 K, 10000 kPa	12.586
263.03 K, 11000 kPa	12.636
263.03 K, 14000 kPa	12.777
263.03 K, 15000 kPa	12.821
263.04 K, 5000 kPa	12.319
263.04 K, 9000 kPa	12.536
274.42 K, 2000 kPa	11.141
274.42 K, 3000 kPa	11.215
274.42 K, 4000 kPa	11.284
274.43 K, 5000 kPa	11.346
274.43 K, 6000 kPa	11.411
274.43 K, 7000 kPa	11.471
274.43 K, 9000 kPa	11.588
274.43 K, 10000 kPa	11.644
274.43 K, 12000 kPa	11.749
274.44 K, 8000 kPa	11.528
274.44 K, 11000 kPa	11.696
274.44 K, 13000 kPa	11.798
274.44 K, 14000 kPa	11.846
274.44 K, 15000 kPa	11.895
283.16 K, 2000 kPa	10.568
283.16 K, 3000 kPa	10.641
283.16 K, 4000 kPa	10.72
283.16 K, 5000 kPa	10.796
283.17 K, 6000 kPa	10.867
283.17 K, 7000 kPa	10.936
283.17 K, 8000 kPa	11.002
283.17 K, 9000 kPa	11.066
283.18 K, 10000 kPa	11.125
283.18 K, 11000 kPa	11.183
283.18 K, 12000 kPa	11.239
283.19 K, 13000 kPa	11.293
283.19 K, 14000 kPa	11.346
283.2 K, 15000 kPa	11.397
294.1 K, 2000 kPa	9.617
294.1 K, 3000 kPa	9.7189
294.11 K, 4000 kPa	9.8137
294.11 K, 5000 kPa	9.9019
294.11 K, 6000 kPa	9.9864
294.11 K, 7000 kPa	10.066
294.11 K, 9000 kPa	10.213
294.11 K, 10000 kPa	10.281
294.11 K, 11000 kPa	10.347
294.11 K, 15000 kPa	10.585
294.12 K, 8000 kPa	10.141
294.12 K, 12000 kPa	10.409
294.12 K, 13000 kPa	10.469
294.12 K, 14000 kPa	10.526
